The text below walks through data of the Deep4Chem optical property database.

SMILES strings stand for the structures.

The series can be described thus: solvent given as SMILES.

In the case of `O=Cc1cc(O)c(C=O)cc1O`, the emission maximum reads like this: (in C1CCOC1) 468 nm; (in C1COCCO1) 468 nm; (in CC#N) 474 nm; (in CC(C)=O) 470 nm; (in CCCO) 491 nm; (in CCO) 491 nm. This compound had an emission maximum (in CN(C)C=O) of 492 nm; an emission maximum (in CN(C)P(=O)(N(C)C)N(C)C) of 493 nm; an emission maximum (in CNC=O) of 479 nm; an emission maximum (in CO) of 492 nm; an emission maximum (in CS(C)=O) of 495 nm; an emission maximum (in NC=O) of 490 nm.

In the case of `O=Cc1ccc2nc(C#Cc3ccc(N(c4ccccc4)c4ccccc4)cc3)sc2c1`, the emission maximum (in Cc1ccccc1) was 473 nm.

For the setting “in C1CCOC1”, `F[B-]1(F)n2c(/C=C/c3ccc(C(=C(c4ccccc4)c4ccccc4)c4ccccc4)cc3)ccc2C(c2ccccc2)=C2C=CC(/C=C/c3ccc(C(=C(c4ccccc4)c4ccccc4)c4ccccc4)cc3)=[N+]21` displayed an emission maximum of 690 nm.

As for `COc1c2ccccc2c(OC)c2c1c1cccc(OC)c1n2C`, the emission maximum runs as follows: (in C1CCCCC1) 418 nm; (in CC#N) 433 nm; (in CO) 429 nm; (in ClCCl) 431 nm.

`O=c1[nH]nc(-c2ccc(/C=C/c3ccc(-c4n[nH]c(=O)o4)cc3)cc2)o1`: for the setting “in CN(C)C=O”, the emission maximum is reported as 408 nm.

`COc1ccc(-c2sc3c(-c4ccc(OC)cc4)c4n(c3c2-c2ccc(OC)cc2)[B-](F)(F)[N+]2=Cc3c(-c5ccc(OC)cc5)c5sc(-c6ccc(OC)cc6)c(-c6ccc(OC)cc6)c5n3[B-](F)(F)[N+]2=C4)cc1`: the emission maximum reads like this: (in CC#N) 641 nm; (in CCCCCC) 630 nm; (in CN(C)C=O) 654 nm; (in Cc1ccccc1) 649 nm; (in ClCCl) 648 nm.

For the compound `CCOC(=O)COc1ccc(/C=C/c2c(CC)c(C)c3n2[B-](F)(F)[N+]2=C(c4[nH]c(C)c(CC)c4C)c4ccccc4C2=C3C)cc1`, the emission maximum reads like this: (in C1CCOC1) 709 nm; (in CC#N) 707 nm; (in CCCCCC) 698 nm; (in CO) 711 nm; (in Cc1ccccc1) 709 nm; (in ClCCl) 714 nm.

For the compound `Cn1c(=O)c(/N=N/c2ccc(S(=O)(=O)O)c3ccccc23)c(O)c2ccccc21`, the emission maximum amounted to 548 nm (in C1CCOC1); 564 nm (in CC(C)=O); 555 nm (in CCOC(C)=O); 562 nm (in CO); 571 nm (in CS(C)=O); 540 nm (in Cc1ccccc1). Further, the emission maximum (in ClCCl) was found to be 541 nm and the emission maximum (in O) is listed as 582 nm.

For the setting “in Cc1ccccc1”, `N#Cc1cc(C#N)c(-c2ccc(N(c3ccccc3)c3ccccc3)cc2)cc1-c1ccc(N(c2ccccc2)c2ccccc2)cc1` yielded an emission maximum of 477 nm.

As for `COc1cc(OC)c2cc(C#N)c(=N)oc2c1`, where the note is “in ClCCl”, the emission maximum is listed as 428 nm.

`Fc1c(F)c(-n2c3ccccc3c3ccccc32)c(F)c(-n2c3ccccc3c3ccccc32)c1-c1nnc(-c2ccccc2)o1`: the emission maximum (in Cc1ccccc1) came to 449 nm.

`C(/C=C/C1=[NH+]c2cccc3cccc1c23)=c1/[nH]c2cccc3cccc1c32` gave an emission maximum (in CO) of 651 nm.

In the case of `CN(C)c1ccc(C2=Cc3cccc[n+]3[B-](F)(F)O2)cc1`, the emission maximum is, setting by setting: (in C1CCOC1) 499 nm; (in C1COCCO1) 486 nm; (in CC1CCCCC1) 447 nm; (in CC#N) 528 nm; (in CCOC(C)=O) 499 nm; (in CCOCC) 477 nm. Besides, the emission maximum amounted to 530 nm (in CN(C)C=O), 517 nm (in CO), 514 nm (in COC(C)=O) and 490 nm (in ClC(Cl)Cl).
